In ChEMBL document CHEMBL3638593, “Macrocycles as factor XIa inhibitors” (2015):

Molecular target: Coagulation factor XI (Homo sapiens, UniProt P03951)
Experiment: In Vitro Assay: The effectiveness of compounds of the present invention as inhibitors of the coagulation Factors XIa, VIIa, IXa, Xa, XIIa, plasma kallikrein or thrombin, can be determined using a relevant purified serine protease, respectively, and an appropriate synthetic substrate. The rate of hydrolysis of the chromogenic or fluorogenic substrate by the relevant serine protease was measured both in the absence and presence of compounds of the present invention. […] A decrease in the rate of absorbance or fluorescence change in the presence of inhibitor is indicative of enzyme inhibition. Such methods are known to one skilled in the art.

Chain of Coagulation factor XI (P03951 19-387 limits assumed): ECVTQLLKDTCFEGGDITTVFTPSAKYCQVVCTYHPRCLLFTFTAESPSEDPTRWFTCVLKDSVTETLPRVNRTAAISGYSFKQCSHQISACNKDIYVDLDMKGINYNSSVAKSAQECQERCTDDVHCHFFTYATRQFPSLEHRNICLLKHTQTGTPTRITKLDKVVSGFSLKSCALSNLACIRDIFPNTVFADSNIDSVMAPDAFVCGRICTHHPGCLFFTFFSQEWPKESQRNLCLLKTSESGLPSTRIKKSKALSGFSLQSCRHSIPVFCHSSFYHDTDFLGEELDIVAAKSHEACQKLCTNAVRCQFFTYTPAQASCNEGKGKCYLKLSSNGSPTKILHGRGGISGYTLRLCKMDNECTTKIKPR
Chain of Coagulation factor XI (P03951 388-625 limits assumed): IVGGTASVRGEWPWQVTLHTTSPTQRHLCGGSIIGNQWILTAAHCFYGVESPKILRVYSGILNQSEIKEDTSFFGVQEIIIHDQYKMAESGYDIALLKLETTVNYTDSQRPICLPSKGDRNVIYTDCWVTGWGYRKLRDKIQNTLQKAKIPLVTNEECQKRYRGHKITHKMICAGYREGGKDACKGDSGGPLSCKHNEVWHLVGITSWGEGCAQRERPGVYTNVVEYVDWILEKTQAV

O=C(/C=C/c1cc(Cl)ccc1-n1cnnn1)N[C@H]1CCCCC(=O)Nc2cc3[nH]ncc3cc2-c2c[nH]c1n2
Ki: 183 nM
